Where two headings read alike, the source gives them in different places.

The results in this text go back to patent US11174233B1, “Anti-cancer compounds having oxazolone derivation” (King Abdulaziz University, priority 2019, dated 2021).

For data set [1], the system named is MCF-7 (breast) cancer cells. Nature of the data set: SRB cytotoxicity assay against MCF7. In kind it is cell-based, human. The conditions noted are these: Homo sapiens, 72 h treatment. The protocol:
(§1) MCF-7 (breast) and PC3 (prostate) cancer cells were each grown in RPMI-1640 medium supplemented with 10% heat inactivated FBS, 50 units/mL of penicillin, and […] of streptomycin. The cultures were maintained at 37° C. in a humidified atmosphere containing 5% CO2. The cells were maintained as “monolayer culture” by serial sub-culturing.
(§2) Cytotoxicity was determined using SRB method as previously described by Skehan et al. [Skehan P.; Storeng R.; Scudiero D.; Monks A.; McMahon J.; al., V. D. e., New colorimetric cytotoxicity assay for anticancer drug screening. […] Exponentially growing cells were collected using 0.25% Trypsin-EDTA and seeded in 96-well plates at 1000-2000 cells/well in RPMI-1640 supplemented medium. After 24 h, cells were incubated for 72 h with various concentrations of the tested compounds. Following 72 h treatment, the cells would be fixed with 10% trichloroacetic acid for 1 h at 4° C. Wells were stained for 10 min at room temperature with 0.4% SRB dissolved in 1% acetic acid. The plates were air dried for 24 h and the dye was solubilized with Tris-HCl for 5 min on a shaker at 1600 rpm. The optical density (OD) of each well was measured spectrophotometrically at 564 nm with an ELISA microplate reader (ChroMate-4300, FL, USA). The IC50 values were calculated according to the equation for Boltzman sigmoidal concentration—response curve using the nonlinear regression fitting models (Graph Pad, Prism Version 5).

Data set [2] deals with PC3 (prostate) cancer cells. Nature of the data set: SRB cytotoxicity assay against PC3. In kind it is cell-based, human. The conditions noted are these: Homo sapiens, 72 h treatment. How it is done:
as §1, §2

Data set [3] relates to HL-60 leukemia cells. Nature of the data set: CellTiter-Blue cell viability assay on HL-60. In kind it is cell-based. The conditions noted are these: Homo sapiens, HL-60 cells, 48 h. How it is done: (§3) HL-60 were purchased from CLS Cell Line Service GmbH (Eppelheim, Germany) and cultured in Roswell Park Memorial Institute-1640 medium (RPMI-1640; Thermo Fisher Scientific, Inc; Waltham, Mass., USA) supplemented with 10% fetal bovine serum (FBS; Thermo Fisher Scientific) and ciprofloxacin (10 μg/mL; Cipla Limited; Mumbai, India), at 37° C. with 5% CO2 in a humidified incubator.
The CellTiter®-Blue Cell Viability assay was acquired from Promega Corporation (Madison, Wis., USA). Cell viability assay was performed as follows. The cells (10^4/well) were incubated with a concentration gradient of KIM-161C and KIM-241C ranging from 0.01 to 100 in 96-well plates for 48 h at 37° C. Subsequently, 20 μL CellTiter®-Blue Cell Viability reagent was added to each well and incubated for an additional 2 h for the development of fluorescence. The fluorescence emission was measured at 590 nm using the SpectraMax® i3× Multi-Mode microplate reader (Molecular Devices, LLC; San Jose, Calif., USA.) and plotted against drug concentrations to determine the mean inhibitory concentration of KIM-161C and KIM-241C producing 50% decrease in cell viability (IC50).

Data set [4] has as its system HL-60 leukemia cells. Put plainly: Cell cycle analysis of Hoechst 33342 stained HL-60 cells by flow cytometry. The format is cell-based, human. The conditions noted are these: 48 h. How it is done:
as §3
The cells (3.5×10^5) were incubated with two different concentrations of KIM-161C at 37° C. for 48 h. Subsequently, the cells were collected and washed twice with ice-cold PBS (1×). The washed cells were fixed on ice for 20 min using a fixation buffer containing paraformaldehyde. Hoechst 33342 (10 μg/mL; Thermo Fisher Scientific, Inc.) was used for staining. The cells were then incubated in the dark for 30 min on ice. A minimum total of 20,000 events were acquired using a BD FACSAria III flow cytometer. Flowlogic version 7.2.1 software (Inivai Technologies, Victoria, Australia) was used to obtain the percentages of cells in the G1, S, and G2/M phases in the singlet-gated population.

Data set [5] deals with HL-60 leukemia cells. Nature of the data set: Apoptosis detection by caspase 3 activity in HL-60 cells. In kind it is cell-based, human. The protocol: as §3
The caspase family of cysteine proteases are important regulators in the apoptosis. Caspase 3 belongs to the effector (caspase 3, 6 and 7) class of proteases and it is a key protease that is activated during early stages of apoptosis. […] The activated caspase 3 is a marker for cell apoptosis that proteolytically cleaves and activates other caspases and intracellular targets [Patel, T.; Gores, G. J.; Kaufmann, S. H., The role of proteases during apoptosis. FASEB journal: official publication of the Federation of American Societies for Experimental Biology 1996, 10 (5), 587-97].
FITC conjugated active caspase-3 antibody (BD biosciences, USA) was used to detect the active form of caspase 3 in the cells undergoing apoptosis. […] The collected cells were washed twice in cold 1×PBS and then re-suspended in a 0.5 mL BD Cytofix/Cytoperm solution followed by 20 min incubation on ice. After incubation, cells were washed twice in a BD Perm/Wash buffer (1×) and then labelled with 5 μL of FITC rabbit anti-caspase 3 antibodies. The labelled cells were washed again with wash buffer and re-suspended in a 0.5 mL buffer and analyzed by acquiring a minimum of 5000 events on the FACS Aria III cell analyzer and sorter.

In the case of `CC(=O)N/C(=C/c1ccccc1)C(=O)Nc1ccc(CC(=O)NCc2ccccc2)cc1` [KIM-111V, (E)-2-acetamido-N-(4-(2-(benzylamino)-2-oxoethyl)phenyl)-3-phenylacrylamide], the melting point amounted to 197 °C. The compound further gave an IC50 in data set [1] of more than 100 µM. The IC50 in data set [2] is more than 100 µM.

The compound `CC1=N/C(=C\c2ccc(Cl)cc2)C(=O)N1c1ccc(CC(=O)NCc2ccccc2)cc1` [KIM-121C, (Z)—N-benzyl-2-(4-(4-(4-chlorobenzylidene)-2-methyl-5-oxo-4,5-dihydro-1H-imidazol-1-yl)phenyl)acetamide] showed a melting point of 209 to 211 °C. In data set [2], this compound came in with an IC50 of 6.86 µM.

Turning to `COc1ccc(/C=C2\N=C(C)N(c3ccc(CC(=O)NCc4ccccc4)cc3)C2=O)cc1` [KIM-161C, (Z)—N-benzyl-2-(4-(4-(4-methoxybenzylidene)-2-methyl-5-oxo-4,5-dihydro-1H-imidazol-1-yl)phenyl)acetamide], the IC50 is 3.5 µM in data set [1] and 0.263 µM with HL-60 leukemia cells [3] (read-out: IC50 value, HL-60 cell viability). For the same compound, in the data set on HL-60 leukemia cells [4] (362.5 nM), the “cells in the G1 phase” value was “increase”. Also, the “increase in the cells in G2/M stage as compared to the control” value in the data set on HL-60 leukemia cells [4] (725 nM) is given as 3 fold. For the same compound, the “increase in the cells undergoing apoptosis as compared to the basal apoptosis” value is given as “more than 2 fold” in the data set with HL-60 leukemia cells [5] (362.5 nM, 24 h); “more than 2 fold” in the data set with HL-60 leukemia cells [5] (362.5 nM, 48 h); “more than 9.5 fold” in the data set with HL-60 leukemia cells [5] (725 nM, 24 h); more than 8.45 fold with HL-60 leukemia cells [5] (725 nM, 48 h).

Take `COc1cc(/C=C2\N=C(c3ccccc3)N(c3ccc(CC(=O)NCc4ccccc4)cc3)C2=O)ccc1O` [KIM-231C, (Z)—N-benzyl-2-(4-(4-(4-hydroxy-3-methoxybenzylidene)-5-oxo-2-phenyl-4,5-dihydro-1H-imidazol-1-yl)phenyl)acetamide]: the melting point fell in the range of 109 to 112 °C.

The compound `O=C(Cc1ccc(N2C(=O)/C(=C/c3ccco3)N=C2c2ccccc2)cc1)NCc1ccccc1` [KIM-241C, (Z)—N-benzyl-2-(4-(4-(furan-2-ylmethylene)-5-oxo-2-phenyl-4,5-dihydro-1H-imidazol-1-yl)phenyl)acetamide] showed a melting point of 199 to 200 °C. The compound also had an IC50 in data set [1] of 0.145 µM. Besides, the IC50 with HL-60 leukemia cells [3] (read-out: IC50 value, HL-60 cell viability (could not be obtained even at this concentration)) was more than 20 µM. In data set [2], this compound came in with an IC50 of 0.243 µM.

`COc1ccc(/C=C2\N=C(c3ccccc3)N(c3ccc(CC(=O)NCc4ccccc4)cc3)C2=O)cc1` [KIM-261C, (Z)—N-benzyl-2-(4-(4-(4-methoxybenzylidene)-5-oxo-2-phenyl-4,5-dihydro-1H-imidazol-1-yl)phenyl)acetamide]: the melting point was determined as 193 °C.
